From ChEMBL document CHEMBL4706478, “Design, Synthesis, and Preclinical Evaluation of Fused Pyrimidine-Based Hydroxamates for the Treatment of Hepatocellular Carcinoma” (J Med Chem, 2018)
Values belong to the molecule of their own block, whether it stands above or below them.

Experiments:
[1] = Oral bioavailability in Balb/c mouse at 150 mg/kg by mass spectrometry; assay type: ADME, organism-based; details: in vivo
[2] = Oral bioavailability in Balb/c mouse at 50 mg/kg by mass spectrometry; assay type: ADME, organism-based; details: in vivo
[3] = Cmax in Balb/c mouse at 150 mg/kg, po by mass spectrometry; assay type: ADME, organism-based; set-up: route oral, dose 150 mg/kg; details: in vivo
[4] = Clearance in Balb/c mouse at 50 mg/kg, iv by mass spectrometry; assay type: ADME, organism-based; details: in vivo
[5] = Tmax in Balb/c mouse at 150 mg/kg, po by mass spectrometry; assay type: ADME, organism-based; details: in vivo
[6] = AUC (0 to infinity) in Balb/c mouse at 50 mg/kg, po by mass spectrometry; assay type: ADME, organism-based; set-up: route oral, time infinity, dose 50 mg/kg; details: in vivo
[7] = AUC (0 to infinity) in Balb/c mouse at 150 mg/kg, po by mass spectrometry; assay type: ADME, organism-based; set-up: route oral, time infinity, dose 150 mg/kg; details: in vivo
[8] = physchem; details: n-octanol/water, pH 7.4
[9] = Volume of distribution at steady state in Balb/c mouse at 50 mg/kg, iv by mass spectrometry; assay type: ADME, organism-based; details: in vivo, read-out: Vdss
[10] = Cmax in Balb/c mouse at 50 mg/kg, po by mass spectrometry; assay type: ADME, organism-based; set-up: route oral, dose 50 mg/kg; details: in vivo
[11] = Tmax in Balb/c mouse at 50 mg/kg, po by mass spectrometry; assay type: ADME, organism-based; details: in vivo
[12] = AUC (0 to infinity) in Balb/c mouse at 50 mg/kg, iv by mass spectrometry; assay type: ADME, organism-based; set-up: route intravenous, time infinity, dose 50 mg/kg; details: in vivo
[13] = in vitro; details: mouse, liver microsomes
[14] = in vitro; details: rat, liver microsomes
[15] = in vitro; details: human, pooled liver microsomes

bioavailability [1]: 18.1%
bioavailability [2]: 5.8%
Cmax [3]: 10.1 µM
clearance [4]: 110 mL/min/kg
Tmax [5]: 30 min
AUC(0-inf) [6]: 0.97 µM·h
AUC(0-inf) [7]: 9.06 µM·h
logD [8]: 2.07
Vd [9]: 3.06 L/kg
Cmax [10]: 3.9 µM
Tmax [11]: 10.2 min
AUC(0-inf) [12]: 16.7 µM·h
Compound: O=C(CCCCCCn1cnc2c(N3CCOCC3)nc(-c3cccc(CO)c3)nc21)NO

Compound: Nc1ncc(-c2nc(N3CCOCC3)c3ncn(CCCCCCC(=O)NO)c3n2)cn1
half-life at 1 h, 5 µM [13]: > 60 min
half-life at 1 h, 5 µM [14]: 35 min
half-life at 1 h, 5 µM [15]: > 60 min

logD [8]: 3.07
Compound: COc1ccc(-c2nc(N3CCOCC3)c3sc(CN(C)c4ncc(C(=O)NO)cn4)cc3n2)cn1 [FIMEPINOSTAT]

logD [8]: 1.05
Compound: O=C(CCCCCCC(=O)Nc1ccccc1)NO [VORINOSTAT]
